Patent publication EP2975030B1, “DIHYDROPYRIDAZINE-3,5-DIONE DERIVATIVE” (Chugai Seiyaku Kabushiki Kaisha, priority 2013, dated 2014)

Key:
[1] = tested on: adenine-induced renal failure rat; test: Suppressive effect on rise in serum phosphorus concentration of adenine-induced renal failure rat (0.1% in feed, 3 days); assay type: in vivo, Wistar male rat; details: feed or water, 72 h, rate of suppression of a rise in serum phosphorus concentration, 0.1% of mass concentration in feed
Text: Test Example 5: Suppressive effect on rise in serum phosphorus concentration of adenine-induced renal failure rat Adenine was forcedly administered orally to each Wistar male rat (7-8 weeks old) to impair renal functions and thereby prepare a hyperphosphatemia model ([…], Nagano N, Burke SK, Fukushima N. Sevelamer hydrochloride prevents ectopic calcification and renal osteodystrophy in chronic renal failure rats. Kidney Int. 2003 Aug; 64 (2): 441-50). Each test compound was mixed at a ratio of 0.1% of mass concentration with feed. The animal was fed with a given amount of the feed for 3 days. A group given feed non-supplemented with a test compound was used as a reference pathological group, and an adenine-unadministered group given feed non-supplemented with a test compound was used as a normal group. 3 days after the start of administration of the test compound, blood was collected from the jugular vein, and serum was collected. Serum phosphorus concentrations were measured by the Fiske-Subbarow method. The rate of suppression of a rise in serum phosphorus concentration was determined according to the following expression: Rate (%) of suppression of a rise in serum phosphorus concentration = (1-[([…]-treatedpathologicalgroup); -(Serumphosphorusconcentrationofthenormalgroup)]/; [(Serumphosphorusconcentrationofthereferencepathologicalgroup)-(Serumphosphorusconcentrationofthenormalgroup)]) × 100 [formula] As a result, each test compound was confirmed to have a suppressive effect on a rise in serum phosphorus concentration. […]

[2] = tested on: rat small-intestinal brush border membrane vesicles; test: Inhibitory effect on 33PO4 uptake into rat small-intestinal brush border membrane vesicles (rapid filtration method); assay type: biochemical, Wistar female rat; details: 1 µM test compound; 33PO4 uptake into rat small-intestinal BBMVs, 60 seconds
Method in brief: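 33PO4 uptake into rat small-intestinal brush border membrane vesicles measured by rapid filtration. Reactions were stopped with ice-cold buffer (110 mM NaCl, 1 mM KH2PO4, 10 mM HEPES pH 7.5), filtered and washed. Vesicle-associated radioactivity was counted by liquid scintillation.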

With C[C@]12CCCN1N(Cc1ccc(OCCN3CCOCC3)c(F)c1F)C(=O)C(C(=O)Nc1ccc(C(F)(F)F)cc1-c1cc(C(F)(F)F)ncn1)=C2O [Example 157, (4aR)-1-[[2,3-Difluoro-4-(2-morpholin-4-ylethoxy)phenyl]methyl]-4-hydroxy-4a-methyl-2-oxo-N-[4-(trifluoromethyl)-2-[6-(trifluoromethyl)pyrimidin-4-yl]phenyl]-6,7-dihydro-5H-pyrrolo[1,2-b]pyridazine-3-carboxamide] the inhibition in vivo at 0.1 %, 0.1 % in feed [1] was 30% and the “Rate of uptake inhibition (%) (1 µM)” value [2] was 89%.
In the case of COC[C@@H]1CCCN1CCOc1ccc(CN2C(=O)C(C(=O)Nc3ccc(C(F)(F)F)cc3-c3cc(C(F)(F)F)ncn3)=C(O)C3(CCC3)N2C)c(F)c1F [Example 345, 6-[[2,3-Difluoro-4-[2-[(2S)-2-(methoxymethyl)pyrrolidin-1-yl]ethoxy]phenyl]methyl]-9-hydroxy-5-methyl-7-oxo-N-[4-(trifluoromethyl)-2-[6-(trifluoromethyl)pyrimidin-4-yl]phenyl]-5,6-diazaspiro[3.5]non-8-ene-8-carboxamide], the inhibition in vivo at 0.1 %, 0.1 % in feed [1] is reported as 19% and the “Rate of uptake inhibition (%) (1 µM)” value [2] is reported as 73%.
In the case of COCCN(C)CCOc1ccc(CN2C(=O)C(C(=O)Nc3ccc(C(F)(F)F)cc3-c3cc(C(F)(F)F)ncn3)=C(O)C3(CCC3)N2C)c(F)c1F [Example 13, 6-[[2,3-Difluoro-4-[2-[2-methoxyethyl(methyl)amino]ethoxy]phenyl]methyl]-9-hydroxy-5-methyl-7-oxo-N-[4-(trifluoromethyl)-2-[6-(trifluoromethyl)pyrimidin-4-yl]phenyl]-5,6-diazaspiro[3.5]non-8-ene-8-carboxamide], the inhibition in vivo at 0.1 %, 0.1 % in feed [1] is reported as 25% and the “Rate of uptake inhibition (%) (1 µM)” value [2] is reported as 58%.
C[C@]12CCCN1N(Cc1ccc(OCCCOC[C@H](O)CO)c(F)c1F)C(=O)C(C(=O)Nc1ccc(C(F)(F)F)cc1-c1ccc(C(F)(F)F)nc1)=C2O [Example 147, (4aR)-1-[[4-[3-[(2R)-2,3-Dihydroxypropoxy]propoxy]-2,3-difluorophenyl]methyl]-4-hydroxy-4a-methyl-2-oxo-N-[4-(trifluoromethyl)-2-[6-(trifluoromethyl)pyridin-3-yl]phenyl]-6,7-dihydro-5H-pyrrolo[1,2-b]pyridazine-3-carboxamide] was tested, and the inhibition in vivo at 0.1 %, 0.1 % in feed [1] was 35% and the “Rate of uptake inhibition (%) (1 µM)” value [2] was 57%.
In the case of CSc1ccc(-c2cc(Cl)ccc2NC(=O)C2=C(O)[C@H](C(C)(C)C)N(C)N(Cc3ccc(OCCN4CCOCC4)c(F)c3F)C2=O)cn1 [Example 269, (3S)-3-tert-Butyl-N-[4-chloro-2-(6-methylsulfanylpyridin-3-yl)phenyl]-1-[[2,3-difluoro-4-(2-morpholin-4-ylethoxy)phenyl]methyl]-4-hydroxy-2-methyl-6-oxo-3H-pyridazine-5-carboxamide], the inhibition in vivo at 0.1 %, 0.1 % in feed [1] is reported as 15% and the “Rate of uptake inhibition (%) (1 µM)” value [2] is reported as 80%.
With Cc1c(C#N)ncnc1-c1cc(C(F)(F)F)ccc1NC(=O)C1=C(O)[C@@]2(C)CCCN2N(Cc2ccc(OCCN3CCOCC3)c(F)c2F)C1=O [Example 22, (4aR)-N-[2-(6-Cyano-5-methylpyrimidin-4-yl)-4-(trifluoromethyl)phenyl]-1-[[2,3-difluoro-4-(2-morpholin-4-ylethoxy)phenyl]methyl]-4-hydroxy-4a-methyl-2-oxo-6,7-dihydro-5H-pyrrolo[1,2-b]pyridazine-3-carboxamide] the inhibition in vivo at 0.1 %, 0.1 % in feed [1] was 26% and the “Rate of uptake inhibition (%) (1 µM)” value [2] was 50%.
With CN1[C@@H](C(C)(C)C)C(O)=C(C(=O)Nc2ccc(Cl)cc2-c2cc(C(F)(F)F)ncn2)C(=O)N1Cc1ccc(OCCN2CCOCC2)c(F)c1F [Example 265, (3S)-3-tert-Butyl-N-[4-chloro-2-[6-(trifluoromethyl)pyrimidin-4-yl]phenyl]-1-[[2,3-difluoro-4-(2-morpholin-4-ylethoxy)phenyl]methyl]-4-hydroxy-2-methyl-6-oxo-3H-pyridazine-5-carboxamide] the inhibition in vivo at 0.1 %, 0.1 % in feed [1] was 11% and the “Rate of uptake inhibition (%) (1 µM)” value [2] was 52%.
For CN1N(Cc2ccc(OCCCCC(=O)O)c(F)c2F)C(=O)C(C(=O)Nc2ccc(C(F)(F)F)cc2-c2cc(C(F)(F)F)ncn2)=C(O)C12CCCC2 [Example 333, 5-[2,3-Difluoro-4-[[10-hydroxy-6-methyl-8-oxo-9-[[4-(trifluoromethyl)-2-[6-(trifluoromethyl)pyrimidin-4-yl]phenyl]carbamoyl]-6,7-diazaspiro[4.5]dec-9-en-7-yl]methyl]phenoxy]pentanoic acid], the inhibition in vivo at 0.1 %, 0.1 % in feed [1] was 8% and the “Rate of uptake inhibition (%) (1 µM)” value [2] was 29%.
In the case of Cc1cc(NC(=O)C2=C(O)[C@H]3CCCCN3N(Cc3cccc(F)c3)C2=O)c(C(F)(F)F)o1 [Example 15, (4aR)-1-[(3-Fluorophenyl)methyl]-4-hydroxy-N-[5-methyl-2-(tritluoromethyl)furan-3-yl]-2-oxo-5,6,7,8-tetrahydro-4aH-pyrido[1,2-b]pyridazine-3-carboxamide], the “Rate of uptake inhibition (%) (1 µM)” value [2] is reported as 42%.
In the case of CN(C)C(=O)N1CCN(CCOc2ccc(CN3C(=O)C(C(=O)Nc4ccc(C(F)(F)F)cc4-c4cc(C(F)(F)F)ncn4)=C(O)C4(CCC4)N3C)c(F)c2F)CC1 [Example 364], the “Rate of uptake inhibition (%) (1 µM)” value [2] is reported as 36%.
With COCCOc1cc(NC(=O)C2=C(O)C3(CCCC3)N(C)N(Cc3ccc(OCCN(C)CCOC)c(F)c3F)C2=O)c(-c2ncnc(C(F)(F)F)c2C)cc1C(F)(F)F [Example 439, 7-[[2,3-Difluoro-4-[2-[2-methoxyethyl(methyl)amino]ethoxy]phenyl]methyl]-10-hydroxy-N-[5-(2-methoxyethoxy)-2-[5-methyl-6-(trifluoromethyl)pyrimidin-4-yl]-4-(trifluoromethyl)phenyl]-6-methyl-8-oxo-6,7-diazaspiro[4.5]dec-9-ene-9-carboxamide] the “Rate of uptake inhibition (%) (1 µM)” value [2] was 35%.
For C[C@]12CCCN1N(CCCC(F)(F)F)C(=O)C(C(=O)Nc1ccc(C(F)(F)F)cc1-c1cc(C(F)(F)F)ncn1)=C2O [Example 234, (4aR)-4-Hydroxy-4a-methyl-2-oxo-1-(4,4,4-trifluorobutyl)-N-[4-(trifluoromethyl)-2-[6-(trifluoromethyl)pyrimidin-4-yl]phenyl]-6,7-dihydro-5H-pyrrolo[1,2-b]pyridazine-3-carboxamide], the “Rate of uptake inhibition (%) (1 µM)” value [2] was 73%.
In the case of Cc1c(C#N)ncnc1-c1cc(C(F)(F)F)ccc1NC(=O)C1=C(O)C(C)(C)N(C)N(Cc2cccc(F)c2F)C1=O [Example 311], the “Rate of uptake inhibition (%) (1 µM)” value [2] is reported as 65%.
With CN(CCOCCOc1ccc(CN2C(=O)C(C(=O)Nc3ccc(C(F)(F)F)cc3-c3cc(C(F)(F)F)ncn3)=C(O)C3(CCCC3)N2C)c(F)c1F)C[C@H](O)[C@@H](O)[C@H](O)[C@H](O)CO [Example 420, 7-[[2,3-Difluoro-4-[2-[2-[methyl-[(2S,3R,4R,5R)-2,3,4,5,6-pentahydroxyhexyl]amino]ethoxy]ethoxy]phenyl]methyl]-10-hydroxy-6-methyl-8-oxo-N-[4-(trifluoromethyl)-2-[6-(trifluoromethyl)pyrimidin-4-yl]phenyl]-6,7-diazaspiro[4.5]dec-9-ene-9-carboxamide] the “Rate of uptake inhibition (%) (1 µM)” value [2] was 19%.
For Cc1c(C#N)ncnc1-c1cc(C(F)(F)F)ccc1NC(=O)C1=C(O)C2(CCC2)N(C)N(Cc2ccc(OCCN3CCOCC3)c(F)c2F)C1=O [Example 283], the “Rate of uptake inhibition (%) (1 µM)” value [2] was 45%.
In the case of COCCN(C)CCN(c1ccc(CN2C(=O)C(C(=O)Nc3ccc(C(F)(F)F)cc3-c3cc(C(F)(F)F)ncn3)=C(O)C3(CCCC3)N2C)c(F)c1F)C(C)C [Example 445], the “Rate of uptake inhibition (%) (1 µM)” value [2] is reported as 29%.
C[C@]12CCCN1N(Cc1cccc(F)c1F)C(=O)C(C(=O)Nc1ccc(C(F)(F)F)cc1-c1cc(C#N)ncn1)=C2O [Example 100] was tested, and the “Rate of uptake inhibition (%) (1 µM)” value [2] was 69%.
With Cc1nc(NC(=O)C2=C(O)C3(CCCC3)N(C)N(Cc3cccc(F)c3F)C2=O)ccc1Br [Example 262] the “Rate of uptake inhibition (%) (1 µM)” value [2] was 43%.
COc1cccc(-c2cc(C(F)(F)F)ccc2NC(=O)C2=C(O)[C@@]3(C)CCCN3N(Cc3ccc(OC[C@H]4CCCO4)c(F)c3F)C2=O)c1OC [Example 159] was tested, and the “Rate of uptake inhibition (%) (1 µM)” value [2] was 89%.
With COc1cccc(-c2cc(C(F)(F)F)ccc2NC(=O)C2=C(O)[C@@]3(C)CCCN3N(Cc3cccc(F)c3F)C2=O)n1 [Example 93] the “Rate of uptake inhibition (%) (1 µM)” value [2] was 56%.
In the case of CN1N(Cc2cccc(F)c2F)C(=O)C(C(=O)Nc2ccc(Cl)cc2-c2cc(C(F)(F)F)ncn2)=C(O)C12CCC2 [Example 255], the “Rate of uptake inhibition (%) (1 µM)” value [2] is reported as 80%.
In the case of CN1N(Cc2ccc(OCCN3CCC(N4CCOCC4)CC3)c(F)c2F)C(=O)C(C(=O)Nc2ccc(C(F)(F)F)cc2-c2cc(C(F)(F)F)ncn2)=C(O)C12CCC2 [Example 358], the “Rate of uptake inhibition (%) (1 µM)” value [2] is reported as 34%.
For CSc1ccc(-c2cc(C(F)(F)F)ccc2NC(=O)C2=C(O)[C@@]3(C)CCCN3N(Cc3ccc(C#CCCCCC(=O)O)c(F)c3F)C2=O)cn1 [Example 117, 7-[4-[[(4aR)-4-Hydroxy-4a-methyl-3-[[2-(6-methylsulfanylpyridin-3-yl)-4-(trifluoromethyl)phenyl]carbamoyl]-2-oxo-6,7-dihydro-5H-pyrrolo[1,2-b]pyridazin-1-yl]methyl]-2,3-difluorophenyl]hept-6-ynoate], the “Rate of uptake inhibition (%) (1 µM)” value [2] was 78%.
